Experiments:
Type in all cases: in vivo
[1] = tested on: redroot pigweed (Amaranthus retroflexus, AMARE); experiment: Pre-emerge test, greenhouse herbicide activity screening; conditions: pre-emerge, phytotoxicity rating 0-100 at 14 days after application
In short: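 Visual ratings on a 0-100 scale (0 no damage, 100 all plants dead) were taken at 14 days after treatment. Rates of 15-1000 g ai/ha in acetone, 187 l/ha, were sprayed onto soil one day after planting (pre-emerge) or onto 2-3 leaf plants with 0.25% v/v surfactant (post-emerge).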

[2] = tested on: barnyardgrass (Echinochloa crus-galli, ECHCG); experiment: as above; conditions: pre-emerge, phytotoxicity rating 0-100 at 14 days after application
From the text: (§1) A standard greenhouse herbicide activity screening system was used to evaluate the herbicidal efficacy and crop safety of these test compounds. Seven broadleaf weed species including redroot pigweed (Amaranthus retroflexus, AMARE, velvetleaf (Abutilon theophrasti, ABUTH), sicklepod (Cassia obtusifolia, CASOB), ivyleaf morningglory (Ipomoea hederacea, IPOHE), lambsquarters (Chenopodium album, CHEAL), common ragweed (Ambrosia artemisizfolia L., AMBEL), and cocklebur (Xanthium strumarium, XANST) were used as test species. Four grass weed species including green foxtail (Setaria viridis, SETVI), barnyardgrass (Echinochloa crus-galli, ECHCG), johnsongrass (Sorghum halepense, SORHA), and large crabgrass (Digitaria sanguinalis, DIGSA) were also used. In addition, three crop species, field corn (Zea mays L., var. Dekalb 535, CORN), soybean (Glycine max L., var. Pella 86, SOY), and is upland rice (Oryza sp., var. Tebonnet, RICE) were included.
(§2) All plants were grown in 10 cm square plastic pots which were filled with a sandy loam soil mix. For pre-emerge tests, seeds were planted one day prior to application of the test compounds. For post-emerge tests, seeds were planted 8-21 days prior to the test to allow emergence and good foliage development prior to application of the test substances. At the time of the post-emerge application, plants of all species were usually at the 2-3 leaf stage of development.
(§3) All test compounds Were dissolved in acetone and applied to the test units in a volume of 187 l /ha. Test materials were applied at rates ranging from 15 g ai/ha to 1000 g ai/ha using a track sprayer equipped with a TJ8001E even flow flat fan spray nozzle. Plants were arranged on a shelf so that the top of the canopy (post-emerge) or top of the soil surface (pre-emerge) was 40-45 cm below the nozzle. Pressurized air was used to force the test solution through the nozzle as it was mechanically advanced (via electrically driven chain drive) over the top of all test plants/pots. This application simulates a typical commercial field herbicide application.
(§4) In the post-emerge test, a commercial non-ionic surfactant was also included (0.25% v/v) to enhance wetting of the leaf surfaces of target plants. Immediately after application, test units of the pre-emerge applications were watered at the soil surface to incorporate the test materials. Subsequently, these test units were bottom-watered. Post-emerge test units were always bottom-watered.
(§5) At 14 days after application of the test materials, phytotoxicity ratings were recorded. A rating scale of 0-100 was used as previously described in Research Methods in Weed Science, 2nd edition, B. Truelove, Ed., Southern Weed Science Society, Auburn University, Auburn, Ala. 1977. Briefly, “0” corresponds to no damage and “100” corresponds to complete death of all plants in the test unit. This scale was used both to determine efficacy against weed species and damage to crop species. Herbicide activity data for various compounds of this invention, which are shown by compound No. in Tables 1-8, are shown in Tables 11 and 12.

[3] = tested on: green foxtail (Setaria viridis, SETVI); experiment: as above; conditions: pre-emerge, phytotoxicity rating 0-100 at 14 days after application
From the text: as §1, §2, §3, §4, §5

[4] = tested on: ivyleaf morningglory (Ipomoea hederacea, IPOHE); experiment: as above; conditions: pre-emerge, phytotoxicity rating 0-100 at 14 days after application
From the text: as §1, §2, §3, §4, §5

[5] = tested on: lambsquarters (Chenopodium album, CHEAL); experiment: as above; conditions: pre-emerge, phytotoxicity rating 0-100 at 14 days after application
From the text: as §1, §2, §3, §4, §5

[6] = tested on: large crabgrass (Digitaria sanguinalis, DIGSA); experiment: as above; conditions: pre-emerge, phytotoxicity rating 0-100 at 14 days after application
From the text: as §1, §2, §3, §4, §5

[7] = tested on: sicklepod (Cassia obtusifolia, CASOB); experiment: as above; conditions: pre-emerge, phytotoxicity rating 0-100 at 14 days after application
From the text: as §1, §2, §3, §4, §5

[8] = tested on: velvetleaf (Abutilon theophrasti, ABUTH); experiment: as above; conditions: pre-emerge, phytotoxicity rating 0-100 at 14 days after application
From the text: as §1, §2, §3, §4, §5

[9] = tested on: field corn (Zea mays L., var. Dekalb 535, CORN); experiment: Pre-emerge test, crop safety; conditions: crop damage, pre-emerge, phytotoxicity rating 0-100 at 14 days after application
In short: (§6)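 Compounds in acetone were track-sprayed at 15-1000 g ai/ha (187 l/ha) on sandy loam pots: pre-emerge one day after seeding, post-emerge at 2-3 leaf stage with 0.25% v/v non-ionic surfactant. Phytotoxicity was rated 14 days later on a 0 (no damage) to 100 (complete death) scale.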

[10] = tested on: upland rice (Oryza sp., var. Tebonnet, RICE); experiment: Pre-emerge test, crop safety; conditions: crop damage, pre-emerge, phytotoxicity rating 0-100 at 14 days after application
In short: as §6

[11] = tested on: barnyardgrass (Echinochloa crus-galli, ECHCG); experiment: Post-emerge test, greenhouse herbicide activity screening; conditions: post-emerge, phytotoxicity rating 0-100 at 14 days after application
From the text: as §1, §2, §3, §4, §5

[12] = tested on: green foxtail (Setaria viridis, SETVI); experiment: as above; conditions: post-emerge, phytotoxicity rating 0-100 at 14 days after application
From the text: as §1, §2, §3, §4, §5

[13] = tested on: ivyleaf morningglory (Ipomoea hederacea, IPOHE); experiment: as above; conditions: post-emerge, phytotoxicity rating 0-100 at 14 days after application
From the text: as §1, §2, §3, §4, §5

[14] = tested on: lambsquarters (Chenopodium album, CHEAL); experiment: as above; conditions: post-emerge, phytotoxicity rating 0-100 at 14 days after application
From the text: as §1, §2, §3, §4, §5

[15] = tested on: large crabgrass (Digitaria sanguinalis, DIGSA); experiment: as above; conditions: post-emerge, phytotoxicity rating 0-100 at 14 days after application
From the text: as §1, §2, §3, §4, §5

[16] = tested on: redroot pigweed (Amaranthus retroflexus, AMARE); experiment: as above; conditions: post-emerge, phytotoxicity rating 0-100 at 14 days after application
From the text: as §1, §2, §3, §4, §5

[17] = tested on: sicklepod (Cassia obtusifolia, CASOB); experiment: as above; conditions: post-emerge, phytotoxicity rating 0-100 at 14 days after application
From the text: as §1, §2, §3, §4, §5

[18] = tested on: velvetleaf (Abutilon theophrasti, ABUTH); experiment: as above; conditions: post-emerge, phytotoxicity rating 0-100 at 14 days after application
From the text: as §1, §2, §3, §4, §5

[19] = tested on: field corn (Zea mays L., var. Dekalb 535, CORN); experiment: Post-emerge test, crop safety; conditions: post-emerge, crop damage rating 0-100 at 14 days after application
In short: (§7)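 Plants grown in 10 cm pots of sandy loam mix received acetone-dissolved compounds through a moving flat-fan nozzle. Doses ranged from 15 to 1000 g ai/ha. Pre-emerge pots were seeded one day earlier, post-emerge pots 8–21 days earlier. Fourteen days on, each pot was graded 0–100 for damage.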

[20] = tested on: upland rice (Oryza sp., var. Tebonnet, RICE); experiment: Post-emerge test, crop safety; conditions: post-emerge, crop damage rating 0-100 at 14 days after application
In short: as §7

Cc1c(Cl)cc(F)c(-n2c(=O)cc(C(F)(F)F)n(C)c2=O)c1NC(=O)OCc1ccco1 [4-70]
Pre-emerge Herbicidal Activity AMARE ([1]; rate 63 g ai/ha): 100
Pre-emerge Herbicidal Activity AMARE ([1]; rate 250 g ai/ha): 100
Pre-emerge Herbicidal Activity ECHCG ([2]; rate 63 g ai/ha): 40
Pre-emerge Herbicidal Activity ECHCG ([2]; rate 250 g ai/ha): 95
Pre-emerge Herbicidal Activity SETVI ([3]; rate 63 g ai/ha): 60
Pre-emerge Herbicidal Activity SETVI ([3]; rate 250 g ai/ha): 100
Pre-emerge Herbicidal Activity IPOHE ([4]; rate 63 g ai/ha): 100
Pre-emerge Herbicidal Activity IPOHE ([4]; rate 250 g ai/ha): 100
Pre-emerge Herbicidal Activity CHEAL ([5]; rate 63 g ai/ha): 100
Pre-emerge Herbicidal Activity CHEAL ([5]; rate 250 g ai/ha): 100
Pre-emerge Herbicidal Activity DIGSA ([6]; rate 63 g ai/ha): 60
Pre-emerge Herbicidal Activity DIGSA ([6]; rate 250 g ai/ha): 100
Pre-emerge Herbicidal Activity CASOB ([7]; rate 63 g ai/ha): 50
Pre-emerge Herbicidal Activity CASOB ([7]; rate 250 g ai/ha): 80
Pre-emerge Herbicidal Activity ABUTH ([8]; rate 63 g ai/ha): 100
Pre-emerge Herbicidal Activity ABUTH ([8]; rate 250 g ai/ha): 100
Pre-emerge Herbicidal Activity CORN ([9]; rate 63 g ai/ha): 90
Pre-emerge Herbicidal Activity CORN ([9]; rate 250 g ai/ha): 95
Pre-emerge Herbicidal Activity RICE ([10]; rate 63 g ai/ha): 40
Pre-emerge Herbicidal Activity RICE ([10]; rate 250 g ai/ha): 70
Post-emerge Herbicidal Activity ECHCG ([11]; 63 g ai/ha): 40
Post-emerge Herbicidal Activity ECHCG ([11]; 250 g ai/ha): 80
Post-emerge Herbicidal Activity SETVI ([12]; 63 g ai/ha): 60
Post-emerge Herbicidal Activity SETVI ([12]; 250 g ai/ha): 95
Post-emerge Herbicidal Activity IPOHE ([13]; 63 g ai/ha): 100
Post-emerge Herbicidal Activity IPOHE ([13]; 250 g ai/ha): 100
Post-emerge Herbicidal Activity CHEAL ([14]; 63 g ai/ha): 90
Post-emerge Herbicidal Activity CHEAL ([14]; 250 g ai/ha): 100
Post-emerge Herbicidal Activity DIGSA ([15]; 63 g ai/ha): 30
Post-emerge Herbicidal Activity DIGSA ([15]; 250 g ai/ha): 70
Post-emerge Herbicidal Activity AMARE ([16]; 63 g ai/ha): 90
Post-emerge Herbicidal Activity AMARE ([16]; 250 g ai/ha): 100
Post-emerge Herbicidal Activity CASOB ([17]; 63 g ai/ha): 60
Post-emerge Herbicidal Activity CASOB ([17]; 250 g ai/ha): 90
Post-emerge Herbicidal Activity ABUTH ([18]; 63 g ai/ha): 100
Post-emerge Herbicidal Activity ABUTH ([18]; 250 g ai/ha): 100
Post-emerge Herbicidal Activity CORN ([19]; 63 g ai/ha): 40
Post-emerge Herbicidal Activity CORN ([19]; 250 g ai/ha): 90
Post-emerge Herbicidal Activity RICE ([20]; 63 g ai/ha): 30
Post-emerge Herbicidal Activity RICE ([20]; 250 g ai/ha): 70

From patent US6355799B1, “Substituted benzene compounds, process for their preparation, and herbicidal and defoliant compositions containing them” (ISK Americas Incorporated, priority 1997, dated 2002)
